{"source": "patent US20240409537A1", "about": "“Crystal Form of AMG510 Compound, and Preparation Method Thereof and Use Thereof” (BIRDO (SHANGHAI) PHARMACEUTICAL R&D CO., LTD, priority 2021, published 2024)", "key": {"[1]": {"conditions": "cited from earlier work"}, "[2]": {"assay": "Dynamic solubility of crystal form in SGF, FaSSIF, FeSSIF and water (HPLC)", "assay_type": "physicochemical", "experimental": "When a drug solubility test was performed to predict the performances of a drug in vivo, it is important to simulate in vivo conditions as much as possible. For oral drugs, simulated gastric fluid (SGF), fasted state simulated intestinal fluid (FaSSIF) and fed state simulated intestinal fluid (FeSSIF) may be used to simulate in vivo conditions and predict a feeding effect, and the solubility tested in such media was closer to the solubility in the human body environment."}, "[3]": {"assay": "Hygroscopicity (Chinese Pharmacopoeia 9103, 25±1° C., 80% relative humidity)", "assay_type": "physicochemical", "conditions": "80% RH, 24 h", "experimental": "According to the description of hygroscopicity characteristics and the definition (9103 Drug Hygroscopicity Experiment Guiding Principles, 2020 edition of General Principles, Chinese Pharmacopoeia, experimental conditions: 25±1° C., 80% relative humidity) of the hygroscopic weight gain: • deliquescent: enough water is absorbed to form liquid • very hygroscopic: the hygroscopic weight gain is not less than 15.0% • hygroscopic: the hygroscopic weight gain is less than 15.0% but not less than 2.0% • slightly hygroscopic: the hygroscopic weight gain is less than 2.0% but not less than 0.2% • no or almost no hygroscopicity: the hygroscopic weight gain is […]."}, "[4]": {"assay": "Stability of crystal form DCIII on sealed placement (HPLC purity, XRPD crystal form)", "assay_type": "physicochemical"}, "[5]": {"assay": "Mechanical stability: manual grinding, XRPD before and after", "assay_type": "physicochemical", "conditions": "ground manually in a mortar for 5 min"}, "[6]": {"conditions": "25° C./60% RH, 1 month, sealed, listed as crystal form DCIII"}, "[7]": {"conditions": "40° C./75% RH, 1 month, sealed, listed as crystal form DCIII"}, "[8]": {"conditions": "60° C./75% RH, 1 month, sealed, listed as crystal form DCIII"}}, "note": "“Also recorded” adds a separate entry of the source. Where two headings read alike, the source gives them in different places.", "data": [{"smiles": "C=CC(=O)N1CCN(c2nc(=O)n(-c3c(C)ccnc3C(C)C)c3nc(-c4c(O)cccc4F)c(F)cc23)[C@@H](C)C1", "note": "[Anhydrous crystal form I, 6-fluoro-7-(2-fluoro-6-hydroxyphenyl)-1-(4-methyl-2-propane-2-ylpyridin-3-yl)-4-[(2S)-2-methyl-4-propyl-2-enoylpiperazin-1-yl]pyridine[2,3-d]pyrimidin-2-one, reference compound]", "values": [{"measurement": "Solubility (prior-art form, in words)", "setting": "[1]", "value": "low solubility"}, {"measurement": "Solubility FaSSIF 1 h", "setting": "[2]; FaSSIF, equilibrated 1 h", "value": 20, "unit": "µg/mL"}, {"measurement": "Solubility FaSSIF 4 h", "setting": "[2]; FaSSIF, equilibrated 4 h", "value": 10, "unit": "µg/mL"}, {"measurement": "Solubility FeSSIF 4 h", "setting": "[2]; FeSSIF, equilibrated 4 h", "value": 40, "unit": "µg/mL"}, {"measurement": "Solubility H2O 1 h", "setting": "[2]; equilibrated 1 h", "value": 10, "unit": "µg/mL"}, {"measurement": "Solubility H2O 4 h", "setting": "[2]; equilibrated 4 h", "value": 10, "unit": "µg/mL"}, {"measurement": "Solubility H2O 24 h", "setting": "[2]; equilibrated 24 h", "value": 10, "unit": "µg/mL"}, {"measurement": "solubility at 24 h", "setting": "[2]; fasted state simulated intestinal fluid (FaSSIF), fassif, thermodynamic from solid, FaSSIF, equilibrated 24 h, read-out: Solubility FaSSIF 24 h", "value": 30, "unit": "µg/mL"}, {"measurement": "solubility at 24 h", "setting": "[2]; fed state simulated intestinal fluid (FeSSIF), fessif, thermodynamic from solid, FeSSIF, equilibrated 24 h, read-out: Solubility FeSSIF 24 h", "value": 60, "unit": "µg/mL"}, {"measurement": "solubility at 1 h", "setting": "[2]; simulated gastric fluid (SGF), simulated gastric fluid, thermodynamic from solid, SGF, equilibrated 1 h", "value": 3770, "unit": "µg/mL"}, {"measurement": "solubility at 4 h", "setting": "[2]; simulated gastric fluid (SGF), simulated gastric fluid, thermodynamic from solid, SGF, equilibrated 4 h", "value": 3860, "unit": "µg/mL"}, {"measurement": "solubility at 24 h", "setting": "[2]; simulated gastric fluid (SGF), simulated gastric fluid, thermodynamic from solid, SGF, equilibrated 24 h, read-out: Solubility SGF 24 h", "value": 3110, "unit": "µg/mL"}]}, {"smiles": "C=CC(=O)N1CCN(c2nc(=O)n(-c3c(C)ccnc3C(C)C)c3nc(-c4c(O)cccc4F)c(F)cc23)[C@@H](C)C1", "note": "[Crystal form DCIII, 6-fluoro-7-(2-fluoro-6-hydroxyphenyl)-1-(4-methyl-2-propane-2-ylpyridin-3-yl)-4-[(2S)-2-methyl-4-propyl-2-enoylpiperazin-1-yl]pyridine[2,3-d]pyrimidin-2-one]", "values": [{"measurement": "Weight gain percentage", "setting": "[3]", "value": 0.6, "unit": "%"}, {"measurement": "Weight gain mass", "setting": "[3]; onset mass 102.76 mg", "value": 0.64, "unit": "mg"}, {"measurement": "Crystal form (XRPD)", "setting": "[4]; 25° C./60% RH, 1 month, sealed", "value": "Crystal form DCIII"}, {"measurement": "Purity (HPLC)", "setting": "[4]; 25° C./60% RH, 1 month, sealed", "value": 99.45, "unit": "%"}, {"measurement": "Crystal form (XRPD)", "setting": "[4]; [6]", "value": "remains unchanged"}, {"measurement": "Purity (HPLC)", "setting": "[4]; [6]", "value": "above 99%"}, {"measurement": "Time for which physicochemical stability is maintained", "setting": "[4]; 25° C./60% RH, 40° C./75% RH and 60° C./75% RH", "value": "at least 1 month"}, {"measurement": "Crystal form (XRPD)", "setting": "[4]; 40° C./75% RH, 1 month, sealed", "value": "Crystal form DCIII"}, {"measurement": "Purity (HPLC)", "setting": "[4]; 40° C./75% RH, 1 month, sealed", "value": 99.49, "unit": "%"}, {"measurement": "Crystal form (XRPD)", "setting": "[4]; [7]", "value": "remains unchanged"}, {"measurement": "Purity (HPLC)", "setting": "[4]; [7]", "value": "does not present a significant decrease"}, {"measurement": "Crystal form (XRPD)", "setting": "[4]; 60° C./75% RH, 1 month, sealed", "value": "Crystal form DCIII"}, {"measurement": "Purity (HPLC)", "setting": "[4]; 60° C./75% RH, 1 month, sealed", "value": 99.50, "unit": "%"}, {"measurement": "Crystal form (XRPD)", "setting": "[4]; [8]", "value": "remains unchanged"}, {"measurement": "Purity (HPLC)", "setting": "[4]; [8]", "value": "does not present a significant decrease"}, {"measurement": "Crystal form (XRPD)", "setting": "[4]; Onset", "value": "Crystal form DCIII"}, {"measurement": "Purity (HPLC)", "setting": "[4]; Onset", "value": 99.44, "unit": "%"}, {"measurement": "Crystal form before and after grinding (XRPD)", "setting": "[5]", "value": "remained unchanged; also recorded: no crystal transformation"}, {"measurement": "Crystallinity after grinding", "setting": "[5]", "value": "no significant decrease"}, {"measurement": "Solubility FaSSIF 1 h", "setting": "[2]; FaSSIF, equilibrated 1 h", "value": 50, "unit": "µg/mL"}, {"measurement": "Solubility FaSSIF 4 h", "setting": "[2]; FaSSIF, equilibrated 4 h", "value": 40, "unit": "µg/mL"}, {"measurement": "Solubility FaSSIF 24 h", "setting": "[2]; FaSSIF, equilibrated 24 h", "value": 40, "unit": "µg/mL"}, {"measurement": "Solubility FeSSIF 1 h", "setting": "[2]; FeSSIF, equilibrated 1 h", "value": 150, "unit": "µg/mL"}, {"measurement": "Solubility FeSSIF 4 h", "setting": "[2]; FeSSIF, equilibrated 4 h", "value": 200, "unit": "µg/mL"}, {"measurement": "Solubility FeSSIF 24 h", "setting": "[2]; FeSSIF, equilibrated 24 h", "value": 80, "unit": "µg/mL"}, {"measurement": "Solubility H2O 1 h", "setting": "[2]; equilibrated 1 h", "value": 30, "unit": "µg/mL"}, {"measurement": "Solubility H2O 4 h", "setting": "[2]; equilibrated 4 h", "value": 30, "unit": "µg/mL"}, {"measurement": "Solubility H2O 24 h", "setting": "[2]; equilibrated 24 h", "value": 30, "unit": "µg/mL"}, {"measurement": "Solubility compared with anhydrous crystal form I (in words)", "setting": "[2]; SGF, FaSSIF, FeSSIF and pure water", "value": "higher solubility"}, {"measurement": "Solubility SGF 1 h", "setting": "[2]; SGF, equilibrated 1 h", "value": 7270, "unit": "µg/mL"}, {"measurement": "Solubility SGF 4 h", "setting": "[2]; SGF, equilibrated 4 h", "value": 6240, "unit": "µg/mL"}, {"measurement": "Solubility SGF 24 h", "setting": "[2]; SGF, equilibrated 24 h", "value": 4540, "unit": "µg/mL"}]}]}
